The conditions of data set [1]: cited from earlier work.
For data set [2], the system named is oxLDL-treated BMDMs. Briefly: Cytokine ELISA in medium of oxLDL-treated BMDMs. The class given is cell-based, mouse. Particulars: 2.5 μM, 8 h oxLDL, vs control. How it is done: (§1) FIG. 3. NO2—OA prevents oxLDL-induced NFκB activation and pro-inflammatory cytokine production. Primary BMDMs were pretreated with vehicle, OA (2.5 μM) or NO2—OA (2.5 μM) for 1 h, followed by treatment of oxLDL (50 to 100 μg/ml) for the indicated times. (A, B) Nuclear (A) and cytoplasmic protein (B) fractions were isolated 1 h after oxLDL treatment and subjected to western blot with antibodies against p65, lamin a/c (nuclear marker) and GAPDH (cytosolic marker). Representative western blot images of three independent experiments are shown. (C) Quantification of the p65 nuclear to cytoplasmic ratio by image studio (normalized by the internal control, n=3). (D-F) Following 8 h of oxLDL treatment, levels of IL6, MCP1 and TNFα in the cell medium were measured by ELISA (n=4). (G) Real-time PCR quantification of gene expression levels of IL1b and Mmp9 in total mRNA extracted from the BMDMs. (C) Ordinary one-way ANOVA followed by Tukey's test was performed. As of (D-F), the basal level contains several non-detectable values, so ordinary one-way ANOVA followed by correction of FDR were performed for the oxLDL-treated groups only. Ordinary one-way ANOVA followed by Tukey's test was performed for (G). Data presented as mean±SEM. A p<0.05 for both the main test and post hoc test was considered statistically significant.
Murine RAW 264.7 cell line, 293T/17 cell line and Primary Umbilical Vein Endothelial Cells (PCS-100-010, HUVECs) were purchased from ATCC (Manassas, VA) and cultured in DMEM (Gibco) with 10% FBS (Thermo Fisher Scientific) or M199 (Gibco) supplemented with 20% FBS for HUVECs. BMDMs isolated from 12 to 16-week-old C57BL/6 wild type mice were cultured in bone marrow macrophage differentiation media. The differentiation medium was prepared by adding L-cell conditioned media (30%), non-essential amino acids (#11140-050, Gibco), sodium pyruvate (1 mM, #11360-070, Gibco), 2-Mercaptoethanol (55 μM) and 10% FBS into Iscove's Modified Dulbecco's Medium (IMDM, Gibco).
A general note: In an ELISA, binding on a coated surface is turned into a signal by an enzyme label.

Data set [3] deals with p65 (NFκB). Description: oxLDL-induced p65 nuclear translocation in BMDMs (western blot). The format is cell-based, mouse. Particulars: 2.5 μM pretreatment 1 h, oxLDL 50 μg/ml 1 h. How it is done:
as §1, with “(C) Ordinary one-way ANOVA followed by Tukey's test was performed. As of (D-F), the basal level contains several non-detectable values, so ordinary one-way ANOVA followed by correction of FDR were performed for the oxLDL-treated groups only. Ordinary one-way ANOVA followed by Tukey's test was performed for (G). Data presented as mean±SEM. A p<0.05 for both the main test and post hoc test was considered statistically significant.” left out
Nuclear/cytoplasm protein extraction, co-Immunoprecipitation and immunoblotting NE-PER™ Nuclear and Cytoplasmic Extraction Reagents (#78835, ThermoFisher) were used for nuclear and cytoplasmic protein extraction. […] Membranes were blocked by 5% BSA and incubated with the primary antibody at 4° C. overnight followed by incubation with fluorescence conjugated secondary antibody for 1 h at room temperature. Band intensity was collected with the Odyssey® CLx Imaging System and quantified using Image Studio™ Lite.
Background: A western blot detects proteins with antibodies after separation by electrophoresis.

With `CCCCCCCCC(=CCCCCCCCC(=O)O)[N+](=O)[O-]` [NO2—OA, 10-nitro-octadec-9-enoic acid], the “Nrf2-regulated genes and heat shock response in peripheral blood mononuclear cells” value in data set [1] (administration in humans) was “induces”. Moreover, in data set [1] (human volunteers), the “circulating interleukin 6 (IL6) level” value is on record as “decreased” and the “circulating monocyte chemoattractant protein 1 (MCP1) level” value is “decreased”. Further, in data set [1] (within a therapeutic window 25-450 mg/day), the “safety in Phase 1 human study” value was “safe”. Besides, in data set [2], the “IL6 level in oxLDL-treated cell medium” value is “significant decrease”, the “MCP1 level in oxLDL-treated cell medium” value is “marginally significant reduction” and the “TNFα levels in oxLDL-treated cell medium” value was “no significant difference”. Further, in data set [3], the “p65 nuclear to cytoplasmic ratio” value is on record as 14.10±1.92.

Source of the values: patent US12728111B2, “Electrophilic compounds and electrophilic prodrugs for treating aneurysm” (University of Pittsburgh—Of the Commonwealth System of …, priority 2020, dated 2026).
